For experiment [1], the system named is capsaicin-induced mechanical allodynia. Kind of experiment: Rat model of capsaicin-induced mechanical allodynia. The format is in vivo. The note with it: sc, read-out: % Inhibition of allodynia. How it is done:
Compounds of the present invention may be assayed for their ability to treat fibromylagia—like pain in a rat model of capsaicin-induced mechanical allodynia (e.g., Sluka, K A, (2002) J of Neuroscience, 22(13): 5687-5693). For example, a rat model of capsaicin-induced mechanical allodynia) was be carried out as follows:
On day 0, male Sprague-Dawley rats (˜150 g) in the dark cycle were placed in suspended wire-bottom cages and allowed to acclimate for 0.5 hour in a darkened, quiet room. The day 0 paw withdrawal threshold (PWT) was determined on the left hind paw by Von Frey hair assessment using the Dixon up and down method. After assessment, the plantar muscle of the right hind paw was injected with 100 μl capsaicin (0.25% (w/v) in 10% ethanol, 10% Tween 80, in sterile saline). On day 6 the PWT of the left hindpaw (contralateral from injection site) was determined for each animal. Animals from the day 6 prereads with PWT≦11.7 g were considered allodynic responders and were regrouped so that each cage had similar mean PWT values. On day 7, responders were dosed subcutaneously with 10 mg compound/kg body weight, or with vehicle alone. The vehicle was phosphate buffered saline containing 2% Cremophor® EL (BASF). The contralateral PWT values were determined at 1 hour after the single dose, with the investigator blinded to the dosing scheme.
In addition, the day 6 PWT was subtracted from the day 0 PWT to give the baseline window of allodynia present in each animal.

For experiment [2], the target named is T1, human norepinephrine transporter (hNET) (Homo sapiens, UniProt P23975).
T1 construct: expressed in transfected cells; host or cells: HEK-293, membranes
As to the kind of experiment: hNET receptor binding, [125I]-RTI-55, HEK-293 membranes. The conditions noted are these: Cheng-Prusoff, read-out: NET Ki. How it is done:
Cell pastes of HEK-293 cells transfected with a human norepinephrine transporter cDNA were prepared. The cell pastes were resuspended in 400 to 700 ml of Krebs-HEPES assay buffer (25 mM HEPES, 122 mM NaCl, 3 mM KCl, 1.2 mM MgSO4, 1.3 mM CaCl2, and 11 mM glucose, pH 7.4) with a Polytron homogenizer at setting 7 for 30 seconds. Aliquots of membranes (5 mg/ml protein) were stored in liquid nitrogen until used.
The binding assay was set up in Beckman deep-well polypropylene plates with a total volume of 250 μl containing: drug (10^−5M to 10^−12M), cell membranes, and […] [^125I]-RTI-55 (Perkin Elmer, NEX-272; specific activity 2200 Ci/mmol). The reaction was incubated by gentle agitation for 90 minutes at room temperature and was terminated by filtration through Whatman GF/C filter plates using a Brandel 96-well plate harvester. Scintillation fluid (100 μl) was added to each well, and bound [^125I]-RTI-55 was determined using a Wallac Trilux Beta Plate Counter. Test compounds were run in duplicate, and specific binding was defined as the difference between binding in the presence and absence of 10 μM desipramine.
Excel and GraphPad Prism software were used for data calculation and analysis. IC50 values were converted to Ki values using the Cheng-Prusoff equation. The Ki values (nM) for the hNET are reported below in Table 1.

The target of experiment [3] is T2, human serotonin transporter (hSERT) (Homo sapiens, UniProt P31645).
T2 construct: expressed in transfected cells; host or cells: HEK-293, membranes
As to the kind of experiment: hSERT receptor binding, [125I]-RTI-55, HEK-293 membranes. On the procedure: Cell pastes of HEK-293 cells transfected with a human serotonin transporter cDNA were prepared. […] Aliquots of membranes (−2.5 mg/ml protein) were stored in liquid nitrogen until used.
The reaction was incubated and gently agitated for 90 minutes at room temperature, and terminated by removal of assay volume. […] Test compounds were run in duplicate, and specific binding was defined as the difference between binding in the presence and absence of 10 μM citalopram. Excel and GraphPad Prism software were used for data calculation and analysis. IC50 values were converted to Ki values using the Cheng-Prusoff equation.

Where [4] appears, read: [125I]-RTI-55, HEK-293 membranes, Cheng-Prusoff, read-out: SERT Ki.
Where [5] appears, read: male Sprague-Dawley rats, 10 mg/kg subcutaneously, PWT 1 hour after single dose, mean of eight animals, normalized for vehicle.

Structures can show the parent of a compound that is named as a salt. Where two headings read alike, the source gives them in different places.

T1 sequence (P23975 whole entry): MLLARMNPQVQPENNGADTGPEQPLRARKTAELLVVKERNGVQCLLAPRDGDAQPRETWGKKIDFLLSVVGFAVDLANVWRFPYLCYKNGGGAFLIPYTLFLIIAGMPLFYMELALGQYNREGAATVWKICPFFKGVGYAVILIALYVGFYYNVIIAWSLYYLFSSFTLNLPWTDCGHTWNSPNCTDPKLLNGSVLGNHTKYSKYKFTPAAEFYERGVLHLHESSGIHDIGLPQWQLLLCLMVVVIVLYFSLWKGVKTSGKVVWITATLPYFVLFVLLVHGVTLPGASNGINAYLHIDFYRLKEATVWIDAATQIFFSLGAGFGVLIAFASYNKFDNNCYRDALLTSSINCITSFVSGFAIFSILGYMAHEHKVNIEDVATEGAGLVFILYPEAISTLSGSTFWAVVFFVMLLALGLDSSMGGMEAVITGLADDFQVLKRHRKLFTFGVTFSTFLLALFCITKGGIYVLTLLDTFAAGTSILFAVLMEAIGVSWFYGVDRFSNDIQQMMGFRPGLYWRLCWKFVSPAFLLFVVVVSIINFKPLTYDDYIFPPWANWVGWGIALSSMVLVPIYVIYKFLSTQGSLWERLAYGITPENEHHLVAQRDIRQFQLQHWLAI
T2 sequence (P31645 whole entry): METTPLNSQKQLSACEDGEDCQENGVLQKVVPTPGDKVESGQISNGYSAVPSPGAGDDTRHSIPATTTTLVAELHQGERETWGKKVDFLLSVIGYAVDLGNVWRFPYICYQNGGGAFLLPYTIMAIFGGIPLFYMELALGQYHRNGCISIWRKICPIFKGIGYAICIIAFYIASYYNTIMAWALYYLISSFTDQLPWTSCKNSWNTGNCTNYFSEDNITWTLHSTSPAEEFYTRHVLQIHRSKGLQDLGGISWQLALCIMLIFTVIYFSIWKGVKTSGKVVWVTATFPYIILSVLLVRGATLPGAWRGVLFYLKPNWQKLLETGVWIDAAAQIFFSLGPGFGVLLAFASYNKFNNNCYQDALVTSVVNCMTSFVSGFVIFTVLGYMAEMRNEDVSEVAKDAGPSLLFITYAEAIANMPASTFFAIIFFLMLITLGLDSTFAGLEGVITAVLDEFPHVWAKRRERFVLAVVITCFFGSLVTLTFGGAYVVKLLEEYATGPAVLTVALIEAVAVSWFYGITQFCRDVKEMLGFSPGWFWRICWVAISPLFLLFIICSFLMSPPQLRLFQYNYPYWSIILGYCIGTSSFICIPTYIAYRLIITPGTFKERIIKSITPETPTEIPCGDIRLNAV

With `CCOc1ccccc1O[C@@H](c1ccccc1)[C@@H]1CNCCO1` [(2S)-2-[(1S)-(2-ethoxyphenoxy)(phenyl)methyl]morpholine, reference compound], in experiment [1] (1 h), the inhibition in vivo at 10 mg/kg is 17%.
The Ki is a measure of affinity in units of concentration, obtained from inhibition or displacement. Take `Fc1cccc([C@H](Oc2ccc(F)cc2Cl)[C@@H]2CNCCO2)c1` [Example 37, (2S)-2-[(1S)-(2-chloro-4-fluorophenoxy)-(3-fluorophenyl)methyl]morpholine hydrochloride]: the results for the Ki in experiment [2] and in experiment [3] (setting [4]) were 13.1 nM and 52.2 nM, respectively. Besides, the inhibition in vivo at 10 mg/kg in experiment [1] (setting [5]) was 80.3%.
The matching figures for `Fc1cccc([C@H](Oc2cc(F)ccc2Cl)[C@@H]2CNCCO2)c1` [Example 41, (2S)-2-[(1S)-(2-Chloro-5-fluorophenoxy)(3-fluorophenyl)methyl] morpholine hydrochloride]: 7.3 nM, 126 nM and 21.1%.
Regarding `COc1cc(Cl)ccc1O[C@@H](c1cccc(F)c1)[C@@H]1CNCCO1` [Example 45, (2S)-2-[(1S)-(4-Chloro-2-methoxyphenoxy)(3-fluorophenyl)methyl] morpholine hydrochloride], the Ki came to 10.5 nM in experiment [2] and 30 nM in experiment [3]. Moreover, the inhibition in vivo at 10 mg/kg in experiment [1] (1 h) amounted to 54.6%.
As to `COc1cc(F)ccc1O[C@@H](c1cccc(F)c1)[C@@H]1CNCCO1` [Example 46, (2S)-2-[(1S)-(4-Fluoro-2-methoxyphenoxy)(3-fluorophenyl)methyl] morpholine hydrochloride], the Ki in experiment [2] was 15.1 nM; in experiment [3] (setting [4]) it was 222 nM. In experiment [1] (setting [5]), the inhibition in vivo at 10 mg/kg was 46.1%.
In the case of `Fc1cccc([C@H](Oc2cc(F)cc(F)c2Cl)[C@@H]2CNCCO2)c1` [Example 48, (2S)-2-[(1S)-(2-Chloro-3,5-difluorophenoxy)(3-fluorophenyl)methyl] morpholine hydrochloride], the Ki in experiment [2] was determined as 16.5 nM; in experiment [3] (setting [4]) it was 80 nM. Moreover, in experiment [1] (setting [5]), the inhibition in vivo at 10 mg/kg was found to be 6.5%.
Consider `COc1cc(F)ccc1O[C@@H](c1cccc(Cl)c1)[C@@H]1CNCCO1` [Example 52, (2S)-2-[(1S)-(3-Chlorophenyl) (4-fluoro-2-methoxyphenoxy)methyl] morpholine hydrochloride], for which the Ki amounted to 549 nM in experiment [2] and 194 nM in experiment [3] (setting [4]). Also, the inhibition in vivo at 10 mg/kg in experiment [1] (setting [5]) was determined as 7%.
As for `Fc1cc(F)c(Cl)c(O[C@@H](c2ccccc2)[C@@H]2CNCCO2)c1` [Example 83, (2S)-2-[(1S)-(2-Chloro-3,5-difluorophenoxy)phenylmethyl]morpholine fumarate], the results for the Ki in experiment [2] and in experiment [3] (setting [4]) were 8.9 nM and 222 nM, respectively.
On to `COc1ccc(Cl)cc1O[C@@H](c1ccccc1)[C@@H]1CNCCO1` [Example 84, (2S)-2-[(1S)-(5-Chloro-2-methoxyphenoxy)phenylmethyl]morpholine fumarate], for which the results for the Ki in experiment [2] and in experiment [3] (setting [4]) were 10.1 nM and 437 nM, respectively.
In the case of `Fc1c(F)c(F)c(O[C@@H](c2ccccc2)[C@@H]2CNCCO2)c(F)c1F` [Example 85, (2S)-2-[(1S)-(Pentafluorophenyloxy) (phenyl)methyl] morpholine fumarate], the Ki came out at 10.9 nM in experiment [2] and 385 nM in experiment [3] (setting [4]).
The matching figures for `Fc1cc(F)c(O[C@@H](c2ccccc2)[C@@H]2CNCCO2)c(F)c1` [Example 86, (2S)-2-[(1S)-Phenyl-(2,4,6-trifluorophenoxy)methyl] morpholine fumarate]: 14.3 nM and 652 nM.
Consider `FC(F)(F)c1ccc(Cl)c(O[C@@H](c2ccccc2)[C@@H]2CNCCO2)c1` [Example 88, (2S)-2-[(1S)-(2-Chloro-5-trifluoromethylphenoxy)phenylmethyl] morpholine fumarate], for which the Ki was found to be 420 nM in experiment [2] and 760 nM in experiment [3] (setting [4]).
Turning to `COc1c(Cl)c(Cl)cc(Cl)c1O[C@@H](c1ccccc1)[C@@H]1CNCCO1` [Example 91, (2S)-2-[(1S)-Phenyl-(3,4,6-trichloro-2-methoxyphenoxy)methyl] morpholine fumarate], the Ki in experiment [2] was found to be 228 nM; in experiment [3] (setting [4]), 26.7 nM.
For `COc1c(Cl)cccc1O[C@@H](c1ccccc1)[C@@H]1CNCCO1` [Example 92, (2S)-2-[(1S)-(3-Chloro-2-methoxyphenoxy)phenylmethyl] morpholine fumarate], in that order: 86.8 nM and 71.7 nM.
Consider `COc1cc(Br)ccc1O[C@@H](c1ccccc1)[C@@H]1CNCCO1` [Example 94, (2S)-2-[(1S)-(4-Bromo-2-methoxyphenoxy)phenylmethyl] morpholine fumarate], for which the Ki was 12.1 nM in experiment [2] and 22.3 nM in experiment [3] (setting [4]).
On to `COc1ccc(O[C@@H](c2ccccc2)[C@@H]2CNCCO2)c(Cl)c1` [Example 96, (2S)-2-[(1S)-(2-Chloro-4-methoxyphenoxy)phenylmethyl] morpholine fumarate], for which the Ki was 25.7 nM in experiment [2] and 47 nM in experiment [3] (setting [4]).
The matching figures for `COc1ccc(Cl)c(O[C@@H](c2ccccc2)[C@@H]2CNCCO2)c1` [Example 97, (2S)-2-[(1S)-(2-Chloro-5-methoxyphenoxy)phenylmethyl] morpholine fumarate]: 42.5 nM and 134 nM.
For the compound `Clc1cc(Cl)c(O[C@@H](c2ccccc2)[C@@H]2CNCCO2)c(Cl)c1` [Example 98, (2S)-2-[(1S)-Phenyl-(2,4,6-trichlorophenoxy)methyl] morpholine fumarate], the Ki turned out to be 755 nM in experiment [2] and 49.6 nM in experiment [3] (setting [4]).
Regarding `COc1cc(C(F)(F)F)ccc1O[C@@H](c1ccccc1)[C@@H]1CNCCO1` [Example 99, (2S)-2-[(1S)-(2-Methoxy-4-trifluoromethylphenoxy)phenylmethyl] morpholine fumarate], the Ki in experiment [2] was 188 nM; in experiment [3] (setting [4]), 35.8 nM.
Turning to `COc1cc(Cl)ccc1O[C@@H](c1cccc(Cl)c1)[C@@H]1CNCCO1` [Example 100, (2S)-2-[(1S)-(4-Chloro-2-methoxyphenoxy) (3-chloro phenyl)methyl] morpholine fumarate], the values for the Ki in experiment [2] and in experiment [3] (setting [4]) were 33 nM and 32.9 nM, respectively.
Consider `COc1cc(C)ccc1O[C@@H](c1cccc(Cl)c1)[C@@H]1CNCCO1` [Example 101, (2S)-2-[(1S)-(3-Chlorophenyl) (2-methoxy-4-methyl phenoxy)methyl] morpholine fumarate], for which the Ki in experiment [2] was 19.4 nM; in experiment [3] (setting [4]), 67.1 nM.
For `COc1cc(Cl)ccc1O[C@@H](c1ccccn1)[C@@H]1CNCCO1` [Example 103, (2S)-2-[(1S)-(4-chloro-2-methoxyphenoxy)(pyridin-2-yl)methyl]morpholine fumarate], the Ki came out at 12.8 nM in experiment [2] and 101 nM in experiment [3] (setting [4]).
As for `Fc1cc(Cl)ccc1O[C@@H](c1ccccn1)[C@@H]1CNCCO1` [Example 104, (2S)-2-[(1S)-(4-chloro-2-fluorophenoxy)(pyridin-2-yl)methyl]morpholine fumarate], the results for the Ki in experiment [2] and in experiment [3] (setting [4]) were 21.1 nM and 486 nM, respectively.
For the compound `COc1ccc(O[C@@H](c2ccccn2)[C@@H]2CNCCO2)c(Cl)c1` [Example 106, (2S)-2-[(1S)-(2-chloro-4-methoxyphenoxy)(pyridin-2-yl)methyl]morpholine fumarate], the Ki came out at 13.8 nM in experiment [2] and 216 nM in experiment [3] (setting [4]).
Consider “(2S)-2-[(1S)-Pentachlorophenyloxy phenyl methyl] morpholine fumarate [Example 95]”, for which the Ki in experiment [2] came out at 587 nM; in experiment [3] (setting [4]), 39.6 nM.

The record behind these values is patent publication US20080161309A1, “Novel Compounds” (priority 2004, published 2008).
